Each structure is given as a SMILES string. Counter-ions that a name gives are not always drawn. Bounds are passed on as bounds.

For the assay, the target named is T1, human S1P1 receptor (Homo sapiens, UniProt P21453).
T1 construct: expressed in transfected cells; membranes
T1 sequence (P21453 whole entry): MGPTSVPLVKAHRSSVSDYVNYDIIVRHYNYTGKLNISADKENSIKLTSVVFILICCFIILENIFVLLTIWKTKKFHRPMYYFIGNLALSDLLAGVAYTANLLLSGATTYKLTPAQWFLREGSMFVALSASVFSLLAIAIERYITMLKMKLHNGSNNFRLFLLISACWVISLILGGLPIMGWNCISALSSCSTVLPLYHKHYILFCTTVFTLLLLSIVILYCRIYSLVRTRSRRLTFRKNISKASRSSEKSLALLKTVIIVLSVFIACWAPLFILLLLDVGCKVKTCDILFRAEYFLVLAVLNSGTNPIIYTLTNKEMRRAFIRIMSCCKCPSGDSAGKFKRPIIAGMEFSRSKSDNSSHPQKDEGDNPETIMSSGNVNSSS
Description: S1P1 GTPγS assay. Type of assay: biochemical. Conditions: agonist activity, [35S]-GTPγS binding, human S1P1 rat hepatoma membranes. As for the experimental part:
(§1) For membrane preparations all steps were performed at 4° C. Rat hepatoma cells stably expressing the human S1P1 receptor or Rat Basophilic Leukaemia cells (RBL) stably expressing human S1P3 receptor were grown to 80% confluency before being harvested into 10 ml Phospho-Buffered Saline (PBS) and centrifuged at 1200 rpm for 5 minutes. After removal of the supernatant, the pellet was re-suspended and cells were homogenised within a glass Waring blender for 2 bursts of 15 secs in 200 mls of buffer (50 mM HEPES, 1 mM leupeptin, 25 μg/ml bacitracin, 1 mM EDTA, 1 mM PMSF, 2 μM pepstatin A). The blender was plunged into ice for 5 mins after the first burst and 10-40 mins after the final burst to allow foam to dissipate. The material was then spun at 500 g for 20 mins and the supernatant spun for 36 mins at 48,000 g. The pellet was resuspended in the same buffer as above but without PMSF and pepstatin A. The material was then forced through a 0.6 mm needle, made up to the required volume, (usually ×4 the volume of the original cell pellet), aliquoted and stored frozen at −80° C.
as §1, with “All” for “For membrane preparations all”, “Cells” for “Rat hepatoma cells stably expressing the human S1P1 receptor or Rat Basophilic Leukaemia cells (RBL) stably expressing human S1P3 receptor were grown to 80% confluency before being harvested into 10 ml Phospho-Buffered Saline (PBS) and centrifuged at 1200 rpm for 5 minutes. After removal of the supernatant, the pellet was re-suspended and cells”
Human S1P1 rat hepatoma membranes (1.5 μg/well) were adhered to a wheatgerm agglutinin (WGA)-coated scintillation proximity assay (SPA) beads (0.125 mg/well) in assay buffer (HEPES 20 mM, MgCl2 10 mM, NaCl 100 mM and pH adjusted to 7.4 using KOH 5M, GDP 10 μM FAC (final assay concentration) and saponin 90 μg/ml FAC was also added).
After 30 minutes pre-coupling on ice the bead and membrane suspension was dispensed into a white Greiner polypropylene LV384-well plate ([…]), containing 0.1 μl of the compound. 5 μl/well [^355]-GTPγS (0.5 nM final radioligand conc) made up in assay buffer was then added to agonist plates. The final assay cocktail (10.1 μl) was then centrifuged at 1000 rpm for 5 minutes then read immediately on a Viewlux reader.
All test compounds were dissolved in DMSO at a concentration of 10 mM and were prepared in 100% DMSO using a 1 in 4 dilution step to provide 11 point dose response curves. The dilutions were transferred to the assay plates ensuring that the DMSO concentration was constant across the plate for all assays.
All data was normalized to the mean of 16 high and 16 low control wells on each plate. A four parameter curve fit was then applied.
S1P1 expressing RH7777 membranes (1.5 μg/well) membranes (1.5 μg/well) were homogenised by passing through a 23G needle. These were then adhered to WGA-coated SPA beads (0.125 mg/well) in assay buffer (HEPES 20 mM, MgCl2 10 mM, NaCl 100 mM and pH adjusted to 7.4 using KOH 5M). GDP 10 μM FAC and saponin 90 μg/ml FAC were also added
After 30 minutes precoupling on ice, the bead and membrane suspension was dispensed into white Greiner polypropylene LV 384-well plates (5 μl/well), containing 0.1 μl of compound. 5 μl/well [^35S]-GTPγS (0.5 nM for S1P1 or 0.3 nM for S1P3 final radioligand concentration) made in assay buffer was then added to the plates. The final assay cocktail (10.1 μl) was then sealed, spun on a centrifuge, then read immediately on a Viewlux instrument.
(In general: GTPγS is a poorly hydrolysed GTP analogue; its binding reports G protein activation.)
On to `CC(C)Oc1ccc(-c2nc(-c3ccc4c(c3)CCCN(CCC(=O)O)C4)no2)cc1C#N` [Example 6, 3-[7-(5-{3-Cyano-4-[(1-methylethyl)oxy]phenyl}-1,2,4-oxadiazol-3-yl)-1,3,4,5-tetrahydro-2H-2-benzazepin-2-yl]propanoic acid hydrochloride], for which the EC50 (in general, the concentration that produces a half-maximal response) was < 100 nM. To `CC(C)Oc1ccc(-c2nc(-c3cccc4c3CCNCC4)no2)cc1C#N` [Example 7, 2-[(1-Methylethyl)oxy]-5-[3-(2,3,4,5-tetrahydro-1H-3-benzazepin-6-yl)-1,2,4-oxadiazol-5-yl]benzonitrile hydrochloride] belongs ≤ 10 nM; to `CC(C)Oc1ccc(-c2nc(-c3cccc4c3CCNCC4)no2)cc1Cl` [Example 8, 6-(5-{3-Chloro-4-[(1-methylethyl)oxy]phenyl}-1,2,4-oxadiazol-3-yl)-2,3,4,5-tetrahydro-1H-3-benzazepine hydrochloride], < 100 nM. The result for `CC(C)Oc1ccc(-c2nc(-c3cccc4c3CCCN(CC(=O)O)C4)no2)cc1Cl` [Example 12, [6-(5-{3-Chloro-4-[(1-methylethyl)oxy]phenyl}-1,2,4-oxadiazol-3-yl)-1,3,4,5-tetrahydro-2H-2-benzazepin-2-yl]acetic acid hydrochloride] reads < 100 nM; that for `CC(C)Oc1ccc(-c2nc(-c3ccc4c(c3)CCNCC4)no2)cc1C#N` [Example 18, 2-[(1-Methylethyl)oxy]-5-[3-(2,3,4,5-tetrahydro-1H-3-benzazepin-7-yl)-1,2,4-oxadiazol-5-yl]benzonitrile hydrochloride], < 100 nM.

Consider `CC(C)Oc1ccc(-c2nc(-c3ccc4c(c3)CCNCC4)no2)cc1C(F)(F)F` [Example 19, 7-{5-[4-[(1-Methylethyl)oxy]-3-(trifluoromethyl)phenyl]-1,2,4-oxadiazol-3-yl}-2,3,4,5-tetrahydro-1H-3-benzazepine hydrochloride], for which the EC50 was < 100 nM. To `CC(C)Oc1ccc(-c2nc(-c3ccc4c(c3)CCN(CCC(=O)O)CC4)no2)cc1Cl` [Example 21, 3-[7-(5-{3-Chloro-4-[(1-methylethyl)oxy]phenyl}-1,2,4-oxadiazol-3-yl)-1,2,4,5-tetrahydro-3H-3-benzazepin-3-yl]propanoic acid] belongs ≤ 10 nM. The result for `CC(C)Oc1ccc(-c2nc(-c3ccc4c(c3)CCN(CC(=O)O)CC4)no2)cc1Cl` [Example 22, [7-(5-{3-Chloro-4-[(1-methylethyl)oxy]phenyl}-1,2,4-oxadiazol-3-yl)-1,2,4,5-tetrahydro-3H-3-benzazepin-3-yl]acetic acid] reads < 100 nM; that for `CC(C)Oc1ccc(-c2nc(-c3ccc4c(c3)CCN(CC(=O)O)CC4)no2)cc1C#N` [Example 23, [7-(5-{3-Cyano-4-[(1-methylethyl)oxy]phenyl}-1,2,4-oxadiazol-3-yl)-1,2,4,5-tetrahydro-3H-3-benzazepin-3-yl]acetic acid], ≤ 10 nM.

As for `CC(C)Oc1ccc(-c2nc(-c3ccc4c(c3)CCN(CC(=O)O)CC4)no2)cc1C(F)(F)F` [Example 24, (7-{5-[4-[(1-Methylethyl)oxy]-3-(trifluoromethyl)phenyl]-1,2,4-oxadiazol-3-yl}-1,2,4,5-tetrahydro-3H-3-benzazepin-3-yl)acetic acid], the EC50 was ≤ 10 nM.

Turning to `O=C(O)CN1CCc2ccc(-c3noc(-c4ccc(-c5ccccc5)c(C(F)(F)F)c4)n3)cc2CC1` [Example 25, (7-{5-[2-(Trifluoromethyl)-4-biphenylyl]-1,2,4-oxadiazol-3-yl}-1,2,4,5-tetrahydro-3H-3-benzazepin-3-yl)acetic acid], the EC50 was < 100 nM. The result for `CC(C)Oc1ccc(-c2nc(-c3ccc4c(c3)CCN(CCCC(=O)O)CC4)no2)cc1Cl` [Example 26, 4-[7-(5-{3-Chloro-4-[(1-methylethyl)oxy]phenyl}-1,2,4-oxadiazol-3-yl)-1,2,4,5-tetrahydro-3H-3-benzazepin-3-yl]butanoic acid] reads ≤ 10 nM; that for `CC(C)Oc1ccc(-c2nc(-c3ccc4c(c3)CCN(CCCC(=O)O)CC4)no2)cc1C#N` [Example 27, 4-[7-(5-{3-cyano-4-[(1-methylethyl)oxy]phenyl}-1,2,4-oxadiazol-3-yl)-1,2,4,5-tetrahydro-3H-3-benzazepin-3-yl]butanoic acid hydrochloride], ≤ 10 nM; that for `CC(C)Oc1ccc(-c2nc(-c3ccc4c(c3)CCN(CCCC(=O)O)CC4)no2)cc1C(F)(F)F` [Example 28, 4-(7-{5-[4-[(1-Methylethyl)oxy]-3-(trifluoromethyl)phenyl]-1,2,4-oxadiazol-3-yl}-1,2,4,5-tetrahydro-3H-3-benzazepin-3-yl)butanoic acid hydrochloride], ≤ 10 nM. The result for `O=C(O)CCCN1CCc2ccc(-c3noc(-c4ccc(-c5ccccc5)c(C(F)(F)F)c4)n3)cc2CC1` [Example 29, 4-(7-{5-[2-(Trifluoromethyl)-4-biphenylyl]-1,2,4-oxadiazol-3-yl}-1,2,4,5-tetrahydro-3H-3-benzazepin-3-yl)butanoic acid hydrochloride] reads < 100 nM; that for `CC(C)Oc1ccc(-c2nc(-c3cccc4c3OCCNC4)no2)cc1Cl` [Example 31, 9-(5-{3-Chloro-4-[(1-methylethyl)oxy]phenyl}-1,2,4-oxadiazol-3-yl)-2,3,4,5-tetrahydro-1,4-benzoxazepine hydrochloride], < 100 nM; that for `CC(C)Oc1ccc(-c2nc(-c3cccc4c3OCCNC4)no2)cc1C#N` [Example 32, 2-[(1-Methylethyl)oxy]-5-[3-(2,3,4,5-tetrahydro-1,4-benzoxazepin-9-yl)-1,2,4-oxadiazol-5-yl]benzonitrile hydrochloride], < 100 nM. To `CC(C)Oc1ccc(-c2nc(-c3cccc4c3OCCN(CCCC(=O)O)C4)no2)cc1Cl` [Example 33, 4-[9-(5-{3-Chloro-4-[(1-methylethyl)oxy]phenyl}-1,2,4-oxadiazol-3-yl)-2,3-dihydro-1,4-benzoxazepin-4(5H)-yl]butanoic acid] belongs < 100 nM; to `CC(C)Oc1ccc(-c2nc(-c3cccc4c3OCCN(CCCC(=O)O)C4)no2)cc1C#N` [Example 34, 4-[9-(5-{3-Cyano-4-[(1-methylethyl)oxy]phenyl}-1,2,4-oxadiazol-3-yl)-2,3-dihydro-1,4-benzoxazepin-4(5H)-yl]butanoic acid], < 100 nM; to `CC(C)Oc1ccc(-c2nc(-c3ccc4c(c3)CNCCO4)no2)cc1C#N` [Example 35, 2-[(1-Methylethyl)oxy]-5-[3-(2,3,4,5-tetrahydro-1,4-benzoxazepin-7-yl)-1,2,4-oxadiazol-5-yl]benzonitrile hydrochloride], < 100 nM.

Consider `CC(C)Oc1ccc(-c2nc(-c3ccc4c(c3)CN(CCC(=O)O)CCO4)no2)cc1C#N` [Example 37, 3-[7-(5-{3-Cyano-4-[(1-methylethyl)oxy]phenyl}-1,2,4-oxadiazol-3-yl)-2,3-dihydro-1,4-benzoxazepin-4(5H)-yl]propanoic acid], for which the EC50 was < 100 nM. For the compound `CC(C)Oc1ccc(-c2nc(-c3ccc4c(c3)CN(CCCC(=O)O)CCO4)no2)cc1C#N` [Example 39, 4-[7-(5-{3-Cyano-4-[(1-methylethyl)oxy]phenyl}-1,2,4-oxadiazol-3-yl)-2,3-dihydro-1,4-benzoxazepin-4(5H)-yl]butanoic acid], the EC50 was < 100 nM.

Source of the values: patent publication US20100174065A1, “COMPOUNDS” (GLAXO GROUP LIMITED, priority 2007, published 2010).
